From patent publication US6579882B2, “Cell adhesion-inhibiting antiinflammatory compounds” (Abbott Laboratories, priority 1998, dated 2003)

| Compound | melting point |
| --- | --- |
| CSc1nnc(Sc2ncnc3c(C)csc23)s1 [Example 13, 7-methyl-4-[[5-(methylthio)-1,3,4-thiadiazol-2-yl]thio]thieno[3,2-d]pyrimidine] | 163 to 166 °C |
| Cc1ccccc1Sc1cncc2sc(C(N)=O)cc12 [Example 48, 4-[(2-methylphenyl)thio]thieno[2,3-c]pyridine-2-carboxamide] | 170 to 172 °C |
| Cc1ccc(Sc2cncc3sc(C=NOc4ccccc4)cc23)cc1 [Example 29, 4-[(4-methylphenyl)thio]thieno[2,3-c]pyridine-2-carboxaldehyde, O-phenyloxime] | 94 to 97 °C |
| CON=C(C)c1cc2c(Oc3ccc(Cl)cc3)cncc2s1 [Example 243A, 1-[4-(4-Chlorophenoxy)thieno[2,3-c]pyridin-2-yl]-1-ethanone O-methyloxime] | 126 to 128 °C |
| O=C(NCC(O)CO)c1cc2c(Oc3ccc(Br)cc3)cncc2s1 (centres unmarked) [Example 149, 4-(4-Bromophenoxy)-N-(2,3-dihydroxypropyl)thieno[2,3-c]pyridine-2-carboxamide] | 76 to 77 °C |
| CNC(=O)c1cc2c(Oc3ccc(C(F)(F)F)cc3)cnc(Cl)c2s1 [Example 319, 7-Chloro-N-methyl-4-[4-(trifluoromethyl)phenoxy]thieno[2,3-c]pyridine-2-carboxamide] | 178 to 179 °C |
| CN(C)C(=O)c1cc2c(Oc3ccc(C(F)(F)F)cc3)cncc2s1 [Example 173, N,N-Dimethyl-4-[4-(trifluoromethyl)phenoxy]thieno[2,3-c]pyridine-2-carboxamide] | 74 to 76 °C |
| NC(=O)/C=C/c1cc2c(Oc3ccc(Cl)cc3)cncc2s1 [Example 92, (E)-3-[4-(4-chlorophenoxy)thieno[2,3-c]pyridin-2-yl]-2-propenamide] | 176 to 178 °C |
| Nc1ccccc1C(=O)c1cc2c(Oc3ccc(Cl)cc3)cncc2s1 [Example 251, (2-Aminophenyl)[4-(4-chlorophenoxy)thieno[2,3-c]pyridin-2-yl]methanone] | 152 to 154 °C |
| Clc1ccc(Oc2cncc3sc(-c4ncon4)cc23)cc1 (hydrate or solvate) [Example 287, 4-(4-Chlorophenoxy)-2-(1,2,4-oxadiazol-3-yl)thieno[2,3-c]pyridine] | 151 to 152 °C |
| Cc1cccc(Sc2cncc3sc(C(N)=O)cc23)c1 [Example 49, 4-[(3-methylphenyl)thio]thieno[2,3-c]pyridine-2-carboxamide] | 171 to 173 °C |
| NC(=O)c1cc2c(Oc3ccc(COC(=O)c4ccco4)cc3)cncc2s1 [Example 200, 4-[[2-(Aminocarbonyl)thieno[2,3-c]pyridin-4-yl]oxy}benzyl 2-furoate] | 180 to 182 °C |
| Cc1ccc(Sc2cncc3sc(C=NOCc4ccccc4)cc23)cc1 [Example 27, 4-[(4-methylphenyl)thio]thieno[2,3-c]pyridine-2-carboxaldehyde, O-(phenylmethyl)oxime] | 127 to 133 °C |
| Nc1nc(-c2cc3c(Oc4ccc(Cl)cc4)cncc3s2)no1 (hydrate or solvate) [Example 289, 3-[4-(4-Chlorophenoxy)thieno[2,3-c]pyridin-2-yl]-1,2,4-oxadiazol-5-amine] | 268 to 270 °C |
| COc1ccc(Sc2cncc3sc(C(N)=O)cc23)cc1 [Example 56, 4-[(4-methoxyphenyl)thio]thieno[2,3-c]pyridine-2-carboxamide] | 219 to 221 °C |
| Nc1ccc(-c2cc3c(Oc4ccc(Cl)cc4)cncc3s2)cc1 [Example 272, 4-[4-(4-Chlorophenoxy)thieno[2,3-c]pyridin-2-yl]aniline] | 178 to 182 °C |
| NC(=O)c1cc2c(SC3CCCCC3)cncc2s1 [Example 57, 4-(cyclohexylthio)thieno[2,3-c]pyridine-2-carboxamide] | 205 to 207 °C |
| Nc1nnc(-c2cc3c(Oc4ccc(Cl)cc4)cncc3s2)[nH]1 [Example 277, 5-[4-(4-Chlorophenoxy)thieno[2,3-c]pyridin-2-yl]-4H-1,2,4-triazol-3-amine] | > 270 °C |
| CCc1cc(Oc2cncc3sc(C(N)=O)cc23)ccc1Cl [Example 176, 4-(4-Chloro-3-ethylphenoxy)thieno[2,3-c]pyridine-2-carboxamide] | 185 to 187 °C |
| CCc1cc2c(Sc3nnc(C)s3)ncnc2s1 [Example 6, 6-ethyl-4-[(5-methyl-1,3,4-thiadiazol-2-yl)thio]thieno[2,3-d]pyrimidine] | 132 to 135 °C |
| Cc1ccc(Sc2ncnc3c(C)csc23)cc1 [Example 11, 7-methyl-4-[(4-methylphenyl)thio]thieno[3,2-d]pyrimidine] | 103 to 107 °C |
| Cc1ccc(Sc2cncc3sc(C(=O)NCC(O)CO)cc23)cc1 (centres unmarked) [Example 37, N-(2,3-dihydroxypropyl)-4-[(4-methylphenyl)thio]thieno[2,3-c]pyridine-2-carboxamide] | 120 to 122 °C |
| Cc1ccc(Sc2cncc3sc(C(N)=S)cc23)cc1 [Example 41, 4-[(4-methylphenyl)thio]thieno[2,3-c]pyridine-2-carbothioamide] | 181 to 183 °C |
| Cc1ccc(Sc2cncc3sccc23)cc1 [Example 42, 4-[(4-methylphenyl)thio]thieno[2,3-c]pyridine] | 94 to 95 °C |

| Compound | melting point |
| --- | --- |
| Cc1csc2c(Sc3nnc(N)s3)ncnc12 [Example 14, 4-[(5-amino-1,3,4-thiadiazol-2-yl)thio]-7-methylthieno[3,2-d]pyrimidine] | 221 to 223 °C |
| CCc1cc2c(Nc3nnc(C)s3)ncnc2s1 [Example 9, 6-ethyl-N-(5-methyl-1,3,4-thiadiazol-2-yl)thieno[2,3-d]pyrimidin-4-amine] | 277 to 280 °C |
| NC(=O)c1cc2c(Oc3ccc(C(F)(F)F)cc3)cnc(Cl)c2s1 [Example 318, 7-Chloro-4-[4-(trifluoromethyl)phenoxy]thieno[2,3-c]pyridine-2-carboxamide] | 175 to 176 °C |
| Oc1ccc(-c2cc3c(Oc4ccc(Cl)cc4)cncc3s2)cc1 [Example 270, 4-[4-(4-Chlorophenoxy)thieno[2,3-c]pyridin-2-yl]phenol] | 213 to 215 °C |
| CCc1cc2c(SCc3ccccc3)ncnc2s1 [Example 5, 6-ethyl-4-[(phenylmethyl)thio]thieno[2,3-d]pyrimidine] | 54 to 60 °C |
| CON=Cc1cc2c(Sc3ccc(C)cc3)cncc2s1 [Example 26, 4-[(4-methylphenyl)thio]thieno[2,3-c]pyridine-2-carboxaldehyde, O-methyloxime] | 95 to 98 °C |
| Cc1ccc(Sc2cncc3sc(C(=O)Nc4ccc(Cl)cc4)cc23)cc1 [Example 24, N-(4-chlorophenyl)-4-[(4-methylphenyl)thio]thieno[2,3-c]pyridine-2-carboxamide] | 208 to 211 °C |
| CONC(=O)c1cc2c(Sc3ccc(C)cc3)cncc2s1 [Example 23, N-methoxy-4-[(4-methylphenyl)thio]thieno[2,3-c]pyridine-2-carboxamide] | 200 to 203 °C |
| NCc1cc2c(Oc3ccc(Cl)cc3)cncc2s1 [Example 256, [4-(4-Chlorophenoxy)thieno[2,3-c]pyridin-2-yl]methanamine] | 78.6 to 79.8 °C |
| CCOC(=O)c1cnc2sccc2c1Sc1nnc(C)s1 [Example 134, ethyl 4-[(5-methyl-1,3,4-thiadiazol-2-yl)thio]thieno[2,3-b]pyridine-5-carboxylate] | 93 to 94 °C |
| CN(C)C(=O)c1cc2c(Oc3ccc(Br)cc3)cncc2s1 [Example 172, 4-(4-Bromophenoxy)-N,N-dimethylthieno[2,3-c]pyridine-2-carboxamide] | 93 to 95 °C |
| Cc1c(C(N)=O)sc2cncc(Oc3ccc(Br)cc3)c12 [Example 304, 4-(4-Bromophenoxy)-3-methylthieno[2,3-c]pyridine-2-carboxamide] | 177 to 178 °C |
| NC(=O)c1csc(-c2cc3c(Oc4ccc(Cl)cc4)cncc3s2)n1 [Example 293, 2-[4-(4-Chlorophenoxy)thieno[2,3-c]pyridin-2-yl]-1,3-thiazole-4-carboxamide] | 215 to 218 °C |
| NC(=O)CNC(=O)c1cc2c(Oc3ccc(Cl)cc3)cncc2s1 [Example 160, N-(2-Amino-2-oxoethyl)-4-(4-chlorophenoxy)thieno[2,3-c]pyridine-2-carboxamide] | 222 to 225 °C |
| C=Cc1ccc(Oc2cncc3sc(C(=O)N(C)C)cc23)cc1 [Example 185, N,N-Dimethyl-4-(4-vinylphenoxy)thieno[2,3-c]pyridine-2-carboxamide] | 80 to 81 °C |
| Cc1ccc(Sc2cncc3sc(C(N)=O)cc23)cc1C [Example 50, 4-[(3,4-dimethylphenyl)thio]thieno[2,3-c]pyridine-2-carboxamide] | 192 to 194 °C |
| Cc1ccc(Sc2cncc3sc(C(N)=O)cc23)c(C)c1 [Example 52, 4-[(2,4-dimethylphenyl)thio]thieno[2,3-c]pyridine-2-carboxamide] | 193 to 195 °C |
| O=C(NCCCl)c1cc2c(Oc3ccc(Cl)cc3)cncc2s1 | 60 to 62 °C (dec.) |
| CNC(=O)c1cc2c(Oc3cccc(F)c3)cncc2s1 [Example 180, 4-(3-Fluorophenoxy)-N-methylthieno[2,3-c]pyridine-2-carboxamide] | 194 to 195 °C |
| Cc1ccc(Sc2cncc3sc(C(=O)c4ccccc4)cc23)cc1 [Example 34, 2-benzoyl-4-[(4-methylphenyl)thio]thieno[2,3-c]pyridine] | 103 to 107 °C |
| NC(=O)c1sc2cncc(Oc3ccc(Cl)cc3)c2c1N [Example 131, 3-amino-4-(4-chlorophenoxy)thieno[2,3-c]pyridine-2-carboxamide] | 202 to 204 °C |
| N#CN=C(N)c1cc2c(Oc3ccc(Cl)cc3)cncc2s1 [Example 250, 4-(4-Chlorophenoxy)-N′-cyanothieno[2,3-c]pyridine-2-carboximidamide] | 265 to 268 °C |
| NC(=O)c1cc2c(Oc3ccc(Cl)cc3)c[nH]c(=O)c2s1 [Example 323, 4-(4-Chlorophenoxy)-7-oxo-6,7-dihydrothieno[2,3-c]pyridine-2-carboxamide] | > 250 °C |
